Measurements as given in patent US20060046966A1, “Antipicornaviral compounds and compositions, their pharmaceutical uses, and materials for their synthesis” (Agouron Pharmaceuticals, Inc., priority 1998, published 2006).

Key:
[1] = target: T1, rhinovirus 3C protease from HRV serotype-14 (Human rhinovirus 14, UniProt P03303); assay: Inhibition of rhinovirus 3C protease (FRET assay), serotype 14; assay type: biochemical; settings: read-out: Protease Inhibition kobs/[I], HRV serotype-14 3C protease; progress curves in enzyme start experiments
T1 construct: Recombinant rhinovirus 3C proteases; made in house
T1 sequence (P03303 1538-1719): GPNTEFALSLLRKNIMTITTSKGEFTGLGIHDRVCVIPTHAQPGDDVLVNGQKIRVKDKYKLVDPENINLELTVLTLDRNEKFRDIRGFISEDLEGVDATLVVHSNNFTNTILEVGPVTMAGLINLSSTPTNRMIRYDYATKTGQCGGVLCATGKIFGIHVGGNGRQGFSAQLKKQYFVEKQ
In short: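 Recombinant 3C protease (50-100 nM) with ~1 μM DABCYL-GRAVFQGPVG-EDANS FRET substrate in 50 mM Tris pH 7.6, 1 mM EDTA, 2% DMSO. Cleavage read as increase in EDANS fluorescence. kobs/[I] derived from progress curves of enzyme-initiated reactions.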

HRV (10) = assay: Antirhinoviral H1-HeLa cell culture assay, HRV serotype 10; assay type: cell-based, human rhinovirus; settings: Human rhinovirus sp., H1-HeLa, H1-HeLa cells, XTT
Method: (§1) In this cell protection assay, the ability of compounds to protect cells against HRV infection was measured by the XTT dye reduction method, which is described in Weislow et al., J. Natl. Cancer Inst. 1989, vol. 81, 577-586.
(§2) H1-HeLa cells were infected with HRV-14 at a multiplicity of infection (m.o.i.) of 0.13 (virus particles/cell) or mock-infected with medium only. Infected or mock-infected cells were resuspended at 8×10^5 cells per mL, and incubated with appropriate concentrations of the compounds to be tested. Two days later, XTT/PMS was added to test plates and the amount of formazan produced was quantified spectrophotometrically at 450/650 nm. The EC50 value was calculated as the concentration of compound that increased the percentage of formazan production in compound-treated, virus-infected cells to 50% of that produced by compound-free, mock-infected cells. The 50% cytotoxic dose (CC50) was calculated as the concentration of compound that decreased the percentage of formazan produced in compound-treated, mock-infected cells to 50% of that produced by compound-free, mock-infected cells. The therapeutic index (TI) was calculated by dividing the CC50 value by the EC50 value.
All strains of human rhinovirus (HRV) for use in this assay were purchased from American Type Culture Collection (ATCC), except for HRV serotype-14 (produced from the infectious cDNA clone constructed by Dr. Robert Rueckert, Institute for Molecular Virology, University of Wisconsin, Madison, Wis.). HRV stocks were propagated and viral assays were performed in H1-HeLa cells (ATCC). Cells were grown in minimal essential medium with 10% fetal bovine serum, available from Life Technologies (Gaithersburg, Md.).
The compounds were tested against control compounds WIN 51711, WIN 52084, and WIN 54954 (obtained from Sterling-Winthrop Pharmaceuticals), Pirodavir (obtained from Janssen Pharmaceuticals), and Pleconaril (prepared according to the method described in Diana et al., J. Med. Chem 1995, vol. 38, 1355). Antiviral data obtained for the test compounds are shown in Tables 1 and 3, where all data are for HRV serotype-14 unless otherwise noted in parentheses.

HRV (25) = assay: Antirhinoviral H1-HeLa cell culture assay, HRV serotype 25; assay type: cell-based; settings: Human rhinovirus sp., H1-HeLa cells, XTT
Method: as §1
as §2, with “value. […]” for “value.”

[2] = system: Coxsackievirus type B3 (CVB-3); assay: Anticoxsackieviral cell culture assay, CVB-3; assay type: cell-based; settings: 24 h, Strain CVB-3, H1-HeLa cells, one day, XTT, read-out: EC50
Method: Coxsackievirus types A-21 (CAV-21) and B3 (CVB-3) were purchased from American Type Culture Collection (ATCC, Rockville, Md.). Virus stocks were propagated and antiviral assays were performed in H1-HeLa cells (ATCC). Cells were grown in minimal essential medium with 10% fetal bovine serum (Life Technologies, Gaithersburg, Md.).
The ability of compounds to protect cells against either CAV-21 or CVB-3 infection was measured by the XTT dye reduction method. This method is described in Weislow et al., J. Natl. Cancer Inst. 1989, vol. 81, 577-586. H1-HeLa cells were infected with CAV-21 or CVB-3 at a multiplicity of infection (m.o.i.) of 0.025 or 0.075, respectively, or mock-infected with medium only. H1-HeLa cells were plated at 4×10^4 cells per well in a 96-well plate and incubated with appropriate concentrations of the test compound. One day (CVB-3) or two days (CAV-21) later, XTT/PMS was added to test plates and the amount of formazan produced was quantified spectrophotometrically at 450/650 nm. The EC50 was calculated as the concentration of compound that increased the formazan production in compound-treated, virus-infected cells to 50% of that produced by compound-free, uninfected cells. The 50% cytotoxic dose (CC50) was calculated as the concentration of compound that decreased formazan production in compound-treated, uninfected cells to 50% of that produced in compound-free, uninfected cells. The therapeutic index TI) was calculated by dividing the CC50 by the EC50.
The compounds were tested against control compounds WIN 54954 (obtained from Sterling-Winthrop Pharmaceuticals), Pirodavir (obtained from Janssen Pharmaceuticals), and Pleconaril (prepared according to Diana et al., J. Med. Chem. 1995, 38, 1355).

CCOC(=O)/C=C/[C@H](C[C@@H]1CCNC1=O)NC(=O)[C@@H](CC(=O)[C@@H](NC(=O)c1cc(C)on1)C(C)C)Cc1ccc(F)cc1 [Compound B-2, Ethyl-3-{(5′-Methylisoxazole-3′-carbonyl)-L-ValΨ(COCH2)-L-(4-F-Phe)-L-((S)-Pyrrol-Ala)}-E-Propenoate] showed a kinact/KI [1] of 1.09e+06 M⁻¹ s⁻¹, an EC50 (HRV (10)) of 20 nM and an EC50 (HRV (25)) of 30 nM. It also gave an EC50 [2] of 180 nM.
